Data as given in ChEMBL document CHEMBL4196216, “Dinghupeptins A-D, Chymotrypsin Inhibitory Cyclodepsipeptides Produced by a Soil-Derived Streptomyces” (J Nat Prod, 2018).
Calls of active or inactive are those of the source. The calls are words filed in the database; no cut-off is given here. Numbered stars: 1 amine (or outer) side, 2 acyl side, 3 side chain; on linkers, the order of the positions; unused ones are H or OH. Bridge positions count the residues as written; N and C are the ends. Square brackets hold non-standard residues; d marks the D form. Peptide text beside a SMILES is read from it. * marks the point of attachment. X1 = CO[C@@H]1CC[C@@H](C(=O)[*:2])N1[*:1]; NMeY = CN[C@@H](Cc1ccc(O)cc1)C(=O)O; Tigloyl = C/C=C(\C)C(=O)*; NHCH2CH2OH = OCCN*

Key:
[1] = target: Pancreatic elastase (Sus scrofa) (UniProt P08419+P00772); experiment: Inhibition of porcine pancreas elastase up to 100 uM using N-succinyl-Ala-Ala-Ala-p-nitroanilide as substrate incubated for 15 mins followed by substrate addition measured every 30 secs; type: protein assay
Trypsin (Sus scrofa) = Trypsin (Sus scrofa) (UniProt P00761); experiment: Inhibition of porcine pancreas trypsin up to 100 uM using N-alpha-benzoyl-DL-Arg-p-nitroanilide hydrochloride as substrate incubated for 15 mins followed by substrate addition measured every 30 secs
Trypsin (Sus scrofa), sequence (P00761 whole entry): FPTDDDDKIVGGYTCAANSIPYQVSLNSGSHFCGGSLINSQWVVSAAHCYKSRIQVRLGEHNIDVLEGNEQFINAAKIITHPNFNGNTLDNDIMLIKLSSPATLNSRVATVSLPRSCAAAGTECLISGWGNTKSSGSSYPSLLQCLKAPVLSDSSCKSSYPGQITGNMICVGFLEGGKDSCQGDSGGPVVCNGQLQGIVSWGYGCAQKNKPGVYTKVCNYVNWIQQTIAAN

[2] = target: Chymotrypsinogen A (Bos taurus) (UniProt P00766); experiment: Inhibition of bovine pancreas alpha-chymotrypsin up to 100 uM using N-succinyl-Gly-Gly-Phe-p-nitroanilide as substrate incubated for 15 mins followed by substrate addition measured every 30 secs
A549 [3] = experiment: Cytotoxicity against human A549 cells after 72 hrs by MTT assay; type: functional, cell-based
MCF7 [4] = experiment: Cytotoxicity against human MCF7 cells after 72 hrs by MTT assay; type: functional, cell-based
HeLa [5] = experiment: Cytotoxicity against human HeLa cells after 72 hrs by MTT assay; type: functional, cell-based
A549 [6] = experiment: Growth inhibition of human A549 cells up to 50 uM after 72 hrs by MTT assay; type: functional
MCF7 [7] = experiment: Growth inhibition of human MCF7 cells up to 50 uM after 72 hrs by MTT assay; type: functional
HeLa [8] = experiment: Growth inhibition of human HeLa cells up to 50 uM after 72 hrs by MTT assay; type: functional
Chymotrypsinogen A [9] = target: T1, Chymotrypsinogen A (Bos taurus, UniProt P00766); experiment: Inhibition of bovine pancreas alpha-chymotrypsin using N-succinyl-Gly-Gly-Phe-p-nitroanilide as substrate incubated for 15 mins followed by substrate addition measured every 30 secs
Chymotrypsinogen A [10] = target: T1, Chymotrypsinogen A; experiment: Competitive inhibition of bovine pancreas alpha-chymotrypsin using N-succinyl-Gly-Gly-Phe-p-nitroanilide as substrate incubated for 15 mins followed by substrate addition measured every 30 secs by double-reciprocal Lineweaver-Burk plot analysis
[11] = target: Chymotrypsinogen A (Bos taurus) (UniProt P00766); experiment: Competitive inhibition of bovine pancreas alpha-chymotrypsin using N-succinyl-Gly-Gly-Phe-p-nitroanilide as substrate incubated for 15 mins followed by substrate addition measured every 30 secs by Dixon plot analysis

Compound | inhibition [1] | inhibition (Trypsin (Sus scrofa)) | inhibition [2] | Activity (A549 [3]) | Activity (MCF7 [4]) | Activity (HeLa [5]) | growth inhibition (GI) (A549 [6]) [%] | growth inhibition (GI) (MCF7 [7]) [%] | growth inhibition (GI) (HeLa [8]) [%] | IC50 (Chymotrypsinogen A [9]) [nM] | Ki (Chymotrypsinogen A [10]) [nM] | inhibition [11]
C/C=C(\C)C(=O)N[C@@H](CCC(N)=O)C(=O)N[C@@H]1C(=O)N[C@@H](CCC(=O)NCCO)C(=O)N2CCC[C@H]2C(=O)N[C@@H](Cc2ccccc2)C(=O)N(C)[C@@H](Cc2ccc(O)cc2)C(=O)N[C@@H](C)C(=O)O[C@@H]1C (Tigloyl-QTE(NHCH2CH2OH)PF[NMeY]A; ester 2-C) | inactive | inactive | inactive | inactive | inactive | inactive | <30 | <30 | <30 |  |  | 
C/C=C(\C)C(=O)N[C@@H](CCC(N)=O)C(=O)N[C@@H]1C(=O)N[C@@H](CCC(=O)NCCO)C(=O)N[C@H]2CC[C@@H](OC)N(C2=O)[C@@H](Cc2ccccc2)C(=O)N(C)[C@@H](Cc2ccc(O)cc2)C(=O)N[C@@H](C)C(=O)O[C@@H]1C | inactive | inactive |  | inactive | inactive | inactive | <30 | <30 | <30 | 1100 | 630 | Active
C/C=C(\C)C(=O)N[C@@H](CCC(N)=O)C(=O)N[C@@H]1C(=O)N[C@@H](CCC(=O)NCCO)C(=O)N2[C@H](OC)CC[C@H]2C(=O)N[C@@H](Cc2ccccc2)C(=O)N(C)[C@@H](Cc2ccc(O)cc2)C(=O)N[C@@H](C)C(=O)O[C@@H]1C (Tigloyl-QTE(NHCH2CH2OH)[X1]F[NMeY]A; ester 2-C) | inactive | inactive |  | inactive | inactive | inactive | <30 | <30 | <30 | 23100 |  | 
C/C=C(\C)C(=O)N[C@@H](CCC(N)=O)C(=O)N[C@@H]1C(=O)N[C@@H](CCC(=O)NCCO)C(=O)N[C@H]2CC[C@@H](O)N(C2=O)[C@@H](Cc2ccccc2)C(=O)N(C)[C@@H](Cc2ccc(O)cc2)C(=O)N[C@@H](C)C(=O)O[C@@H]1C | inactive | inactive |  | inactive | inactive | inactive | <30 | <30 | <30 | 2100 |  | 
